What was measured:
[1] = test system: HBV surface antigen (HBsAg); assay: Cryopreserved PHH assay, ELISA of hepatitis B surface antigen in culture supernatant; assay type: cell-based, type D HBV in human primary hepatocytes (PHH); conditions: Hepatitis B virus, 240 h, read-out: HBsAg EC50
Experimental: (§1) The inhibitory effect of the compounds on HBV was evaluated by real-time quantitative qPCR assay (real time-qPCR) to detect the HBV DNA content in human primary hepatocytes (PHH) culture supernatant, and ELISA to detect the hepatitis B surface antigen and e antigen content, the EC50 value of the compounds was used as an indicator; meanwhile, the cell viability was detected by CellTiter-Glo to evaluate the toxicity of the compounds to cells.
(§2) 3.1. On day 0, PHH (1.32×10^5 cells/well) was seeded into a 48-well plate and incubated overnight at 37° C., 5% CO2.
(§3) 3.2. On the first day, PHH was infected with type D HBV (concentrated from HepDE19 cell culture supernatant).
(§4) 3.3 On the second day, the test compound was diluted to 7 concentrations with 5-fold serial dilution. Reference compound Peg-IFN-α 2a, 7 concentrations with 3-fold serial dilution. Compounds with different concentrations were added to the culture wells, and the wells were double-duplicated wells. The final concentration of DMSO in the culture medium was 2%.
(§5) 3.4 On the 4th, 6th, and 8th day, the culture medium was replaced by a fresh culture medium containing the compound.
(§6) 3.5 After collecting the culture supernatant from the culture well on the 10th day, the cell viability was tested with CellTiter-Glo. A portion of the culture supernatant was collected for ELISA determination to detect the content of hepatitis B virus surface antigen and e antigen; a portion of the sample was collected for extract DNA using a high-throughput DNA purification kit, referring to the product instructions for the specific steps.
(§7) 3.7 ELISA determination of hepatitis B virus surface antigen and e antigen
(§8) The specific steps can be referred to the product manual, the steps are briefly described as follows: 50 μL of sample and standard was added to the reaction plate respectively, 50 μL of enzyme conjugate was added to each well, the mixture was shaken and mixed well, then kept in a warm bath at 37° C. for 60 minutes, the plate was washed with washing solution for 5 times, 50 μL of the luminescent substrate was added to each well, the mixture was mixed well, and the reaction was carried out in the dark at room temperature for 10 minutes, and finally the chemiluminescence intensity was detected with the instrument.
(§9) Calculation of the inhibition percentage of HBV DNA, HBV surface antigen and e antigen. % Inh.=(1−value of the sample/value of DMSO control)×100.

HBV e antigen (HBeAg) = assay: Cryopreserved PHH assay, ELISA of hepatitis B e antigen in culture supernatant; assay type: cell-based, type D HBV in human primary hepatocytes (PHH); conditions: Hepatitis B virus, 240 h, read-out: HBeAg EC50
Experimental: as §1, §2, §3, §4, §5, §6, §7, §8, §9

HBV DNA = assay: Cryopreserved PHH assay, real-time qPCR of HBV DNA in culture supernatant; assay type: cell-based, type D HBV in human primary hepatocytes (PHH); conditions: Hepatitis B virus, 240 h; PHH infected with type D HBV, supernatant day 10, qPCR
Experimental: as §1, §2, §3, §4, §5, §6
3.6 Quantitative PCR to detect the content of HBV DNA
The qPCR reaction mixture, sample and standard were added to the 384 well reaction plate. PCR reactions: 95° C., 10 min; 95° C., 15 sec, 60° C., 1 min, 40 cycles.
as §9

[2] = Cryopreserved PHH assay, cell viability by CellTiter-Glo; assay type: cell-based; conditions: human, cryopreserved primary human hepatocytes (PHH), day 10, CellTiter-Glo
Experimental: as §1, §2, §4, §5, §6
Calculation of the percentage of cell viability: % viability=the luminescence value of the sample/the luminescence value of the DMSO control×100.

Row | Compound | EC50 [1] [nM] | EC50 (HBV e antigen (HBeAg)) [nM] | EC50 (HBV DNA) [nM] | CC50 at 8 days [2] [µM]
1 | CCOC(=O)c1ccc(-c2csc(C3=NC(C)(C)c4ccccc4N3)n2)cc1 [Compound I-73] | 115 | 12 | 13.4 | > 50
2 | O=C(O)C1CCN(c2ccc3c(=O)c4cccc(Cl)c4oc3c2)C1 (stereo not drawn) [A, reference compound] | 9930 | 6880 | 576 | > 50
3 | CC1(C)N=C(c2cc(-c3ccc(C(=O)O)cc3)co2)Nc2c(Cl)cccc21 [Compound I-50, 4-(5-(8-chloro-4,4-dimethyl-1,4-dihydroquinazolin-2-yl)furan-3-yl)benzoic acid] | 102 | 53.7 | 77.5 | > 50
4 | CC1(C)N=C(c2nc(-c3ccc(C(=O)O)cc3)cs2)Nc2ccc(Cl)cc21 [Compound I-27, 4-(2-(6-chloro-4,4-dimethyl-1,4-dihydroquinazolin-2-yl)thiazol-4-yl)benzoic acid] | > 50000 | 21.1 | 16.7 | > 50
5 | O=C(O)c1ccc(-c2csc(C3=NCc4cccc(Cl)c4N3)n2)cc1 [Compound I-1, 4-(2-(8-chloro-1,4-dihydroquinazolin-2-yl)thiazol-4-yl)benzoic acid] | 38100 | 18100 | 22200 | > 50
6 | CC1(C)N=C(c2nc(-c3cccc(C(=O)O)c3)cs2)Nc2c(Cl)cccc21 [Compound I-36, 3-(2-(8-chloro-4,4-dimethyl-1,4-dihydroquinazolin-2-yl)thiazol-4-yl)benzoic acid] | > 50000 | > 50000 | 9960 | > 50
7 | O=C(O)c1ccc(-c2csc(C3=NC4(COC4)c4cccc(Cl)c4N3)n2)cc1 [Compound I-11, 4-(2-(8′-chloro-1′H-spiro[oxetanyl-3,4′-quinazolin]-2′-yl)thiazol-4-yl)benzoic acid] | 163 | 17 | 21 | > 50
8 | CC1(C)N=C(c2nc(-c3ccc(C(=O)O)nc3)cs2)Nc2ccccc21 [Compound I-35, 5-(2-(4,4-dimethyl-1,4-dihydroquinazolin-2-yl)thiazol-4-yl)pyridin-2-carboxylic acid] | 1030 | 339 | 1130 | > 50
9 | CC1(C)N=C(c2nc(-c3ccc(C(=O)NS(C)(=O)=O)cc3)cs2)Nc2ccccc21 [Compound I-66] | 369 | 31.7 | 30.4 | > 50
10 | CC1(C)N=C(c2nc(-c3ccc(C(=O)O)cc3)cs2)Nc2c(F)cc(F)cc21 [Compound I-70, 4-(2-(6,8-difluoro-4,4-dimethyl-1,4-dihydroquinazolin-2-yl)thiazol-4-yl)benzoic acid] | 40.7 | 5.2 | 7.12 | > 50
11 | CC1(C)N=C(c2ncc(-c3ccc(C(=O)O)cc3)cn2)Nc2c(Cl)cccc21 [Compound I-49, 4-(2-(8-chloro-4,4-dimethyl-1,4-dihydroquinazolin-2-yl)pyrimidin-5-yl)benzoic acid] | > 50000 | 41300 | 10900 | > 50
12 | O=C(O)c1ccc(-c2ccc(-c3cc(=O)c4cccc(Cl)c4o3)cc2)cc1 [Compound I-14, 4′-(8-chloro-4-oxo-4H-benzopyran-2-yl)-[1.1′-biphenyl)-4-carboxylic acid] | > 50000 | > 20000 | > 20000 | > 50
13 | CC1(C)N=C(c2ccc(-c3ccc(C(=O)O)cc3)cn2)Nc2c(Cl)cccc21 [Compound I-48, 4-(6-(8-chloro-4,4-dimethyl-1,4-dihydroquinazolin-2-yl)pyridin-3-yl)benzoic acid] | > 50000 | 426 | 4020 | > 50
14 | CC1(C)N=C(c2nc(-c3ccc(C(=O)O)cc3)cs2)Oc2ccccc21 [Compound I-68, 4-(2-(4,4-dimethyl-4H-benzo[e] [1,3]oxazin-2-yl)thiazol-4-yl)benzoic acid] | 582 | 17 | 81.1 | > 50
15 | CC1N=C(c2nc(-c3ccc(C(=O)O)cc3)cs2)Nc2c(Cl)cccc21 (stereo not drawn) [Compound I-2, 4-(2-(8-chloro-4-methyl-1,4-dihydroquinazolin-2-yl)thiazol-4-yl)benzoic acid] | 13.5 | 5.4 | 6.5 | > 50
16 | CC1(C)N=C(c2nc(-c3ccc(C(=O)O)cc3)cs2)Nc2c(Br)cccc21 [Compound I-22, 4-(2-(8-bromo-4,4-dimethyl-1,4-dihydroquinazolin-2-yl)thiazol-4-yl)benzoic acid] | > 50000 | 3.8 | 10 | > 50
17 | CC1(C)N=C(c2nc(-c3ccc(C(=O)O)cc3F)cs2)Nc2ccccc21 [Compound I-38, 4-(2-(4,4-dimethyl-1,4-dihydroquinazolin-2-yl)thiazol-4-yl)-3-flurobenzoic acid] | 92 | 12 | 16 | > 50
18 | CC1(C)N=C(c2nc(-c3ccc(C(=O)O)cc3)cs2)Nc2c(F)cccc21 [Compound I-21, 4-(2-(8-fluoro-4,4-dimethyl-1,4-dihydroquinazolin-2-yl)thiazol-4-yl)benzoic acid] | 16.5 | 4.8 | 6.9 | > 50
19 | CC1N=C(c2ccc(-c3ccc(C(=O)O)cc3)cc2)Nc2c(Cl)cccc21 (stereo not drawn) [Compound I-43, 4′-(8-chloro-4-methyl-1,4-dihydroquinazolin-2-yl)-[1.1′-biphenyl]-4-carboxylic acid] | > 50000 | 40800 | > 50000 | > 50
20 | CC1(C)N=C(c2nc(-c3ccc(C(=O)O)cc3)co2)Nc2c(Cl)cccc21 [Compound I-53, 4-(2-(8-chloro-4,4-dimethyl-1,4-dihydroquinazolin-2-yl)oxazol-4-yl)benzoic acid] | 115 | 5.6 | 8.4 | > 50
21 | CCC1(CC)N=C(c2nc(-c3ccc(C(=O)O)cc3)cs2)Nc2ccccc21 [Compound I-69, 4-(2-(4,4-diethyl-1,4-dihydroquinazolin-2-yl)thiazol-4-yl)benzoic acid] | 56.3 | 11.3 | 17.1 | > 50
22 | CC1(C)N=C(c2nc(-c3ccc(C(N)=O)cc3)cs2)Nc2ccccc21 [Compound I-71, 4-(2-(4,4-dimethyl-1,4-dihydroquinazolin-2-yl)thiazol-4-yl)benzamide] | 92.4 | 14.7 | 31.6 | > 50
23 | CC1(C)N=C(c2cc(-c3ccc(C(=O)O)cc3)c[nH]2)Nc2c(Cl)cccc21 [Compound I-51, 4-(5-(8-chloro-4,4-dimethyl-1,4-dihydroquinazolin-2-yl)-1H-pyrrol-3-yl)benzoic acid] | > 50000 | 10 | 9.7 | > 50
24 | CC1(C)N=C(c2nc(-c3ccc(-c4nnn[nH]4)cc3)cs2)Nc2ccccc21 [Compound I-72] | 17500 | 8050 | 8090 | > 50

Reference: patent US11661420B2 (NANJING HEPO PHARMACEUTICAL CO., LTD, priority 2019, dated 2023)
